Results as given in PubChem BioAssay AID1918943 (Molecular Pharmacology Branch, DTP, NCI, 2023).
“And” between values parts separate entries of the source, which are not always exact repeats. Identical values can stand only once.

Test system: 855422-203-R-J1-PDC complex spheroid viability
Experiment: Anticancer human tumor 855422-203-R-J1-PDC patient-derived bladder carcinoma cell line growth inhibition
Conditions: for viability, T/C: stronger effect = lower value
Summary of the method: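 Multicellular complex spheroids of tumor cells with human endothelial cells (HUVEC) and mesenchymal stem cells; the LSD1 inhibitor iadademstat was combined with standard-of-care or investigational agents. Top concentration at or near clinical Cmax, half-log dilutions; final DMSO ≤0.25%.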

[1] = curve of first compound, second compound 0.1 µM
[2] = curve of first compound, second compound 0.316 µM
[3] = curve of first compound, second compound 1 µM
[4] = curve of first compound, second compound 3.16 µM
[5] = curve of first compound, second compound 10 µM
[6] = second compound 0.1 µM, first compound 0.00949 µM
[7] = second compound 0.1 µM, first compound 0.03 µM
[8] = second compound 0.1 µM, first compound 0.0949 µM
[9] = second compound 0.1 µM, first compound 0.3 µM
[10] = second compound 0.316 µM, first compound 0.00949 µM
[11] = second compound 0.316 µM, first compound 0.03 µM
[12] = second compound 0.316 µM, first compound 0.0949 µM
[13] = second compound 0.316 µM, first compound 0.3 µM
[14] = second compound 1 µM, first compound 0.00949 µM
[15] = second compound 1 µM, first compound 0.03 µM
[16] = second compound 1 µM, first compound 0.0949 µM
[17] = second compound 1 µM, first compound 0.3 µM
[18] = second compound 3.16 µM, first compound 0.00949 µM
[19] = second compound 3.16 µM, first compound 0.03 µM
[20] = second compound 3.16 µM, first compound 0.0949 µM
[21] = second compound 3.16 µM, first compound 0.3 µM
[22] = second compound 10 µM, first compound 0.00949 µM
[23] = second compound 10 µM, first compound 0.03 µM
[24] = second compound 10 µM, first compound 0.0949 µM
[25] = second compound 10 µM, first compound 0.3 µM
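Also: drug exposure lasted 7 days starting on day 3 after seeding.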
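For viability, T/C in this document: luminescence viability as percent of DMSO vehicle wells = 100%.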

CCc1c2c(nc3ccc(O)cc13)-c1cc3c(c(=O)n1C2)COC(=O)[C@]3(O)CC + NC1CC1c1ccc(-c2cccc(O)c2)cc1
IC50 [1]: < 0.949 nM | IC50 [2]: < 0.949 nM | IC50 [3]: < 0.949 nM | IC50 [4]: < 0.949 nM | IC50 [5]: < 0.949 nM | viability, T/C (second compound 0.1 µM, first compound 0.000949 µM): 20.8% | viability, T/C (second compound 0.1 µM, first compound 0.003 µM): 14.2% | viability, T/C [6]: 9.58% | viability, T/C [7]: 6.75% | viability, T/C [8]: 4.82% | viability, T/C [9]: 3.56% | viability, T/C (second compound 0.316 µM, first compound 0.000949 µM): 17.1% | viability, T/C (second compound 0.316 µM, first compound 0.003 µM): 15.1% | viability, T/C [10]: 10.9% | viability, T/C [11]: 6.65% | viability, T/C [12]: 4.88% | viability, T/C [13]: 2.78% | viability, T/C (second compound 1 µM, first compound 0.000949 µM): 15.7% | viability, T/C (second compound 1 µM, first compound 0.003 µM): 13% | viability, T/C [14]: 10.2% | viability, T/C [15]: 6.49% | viability, T/C [16]: 3.41% | viability, T/C [17]: 2.05% | viability, T/C (second compound 3.16 µM, first compound 0.000949 µM): 15.7% | viability, T/C (second compound 3.16 µM, first compound 0.003 µM): 13.7% | viability, T/C [18]: 9.86% | viability, T/C [19]: 6.91% | viability, T/C [20]: 4.7% | viability, T/C [21]: 2.44% | viability, T/C (second compound 10 µM, first compound 0.000949 µM): 17.6% | viability, T/C (second compound 10 µM, first compound 0.003 µM): 12.6% | viability, T/C [22]: 8.31% | viability, T/C [23]: 5.99% | viability, T/C [24]: 2.54% | viability, T/C [25]: 1.14%

CC(C)CC(NC(=O)C(Cc1ccccc1)NC(=O)c1cnccn1)B(O)O (configuration not stated) + NC1CC1c1ccc(-c2cccc(O)c2)cc1
IC50 [1]: 0.641 nM | IC50 [2]: 0.627 nM | IC50 [3]: 0.61 nM | IC50 [4]: 0.603 nM | IC50 [5]: 0.578 nM | viability, T/C (second compound 0.1 µM, first compound 0.000316 µM): 127% | viability, T/C (second compound 0.1 µM, first compound 0.001 µM): 1.42% | viability, T/C (second compound 0.1 µM, first compound 0.00316 µM): 0.04% | viability, T/C (second compound 0.1 µM, first compound 0.01 µM): 0.01% | viability, T/C (second compound 0.1 µM, first compound 0.0316 µM): 0.03% | viability, T/C (second compound 0.1 µM, first compound 0.1 µM): 0.14% | viability, T/C (second compound 0.316 µM, first compound 0.000316 µM): 122% | viability, T/C (second compound 0.316 µM, first compound 0.001 µM): 1.03% | viability, T/C (second compound 0.316 µM, first compound 0.00316 µM): 0.02% | viability, T/C (second compound 0.316 µM, first compound 0.01 µM): 0.01% | viability, T/C (second compound 0.316 µM, first compound 0.0316 µM): 0.02% | viability, T/C (second compound 0.316 µM, first compound 0.1 µM): 0.11% | viability, T/C (second compound 1 µM, first compound 0.000316 µM): 115% | viability, T/C (second compound 1 µM, first compound 0.001 µM): 0.89% | viability, T/C (second compound 1 µM, first compound 0.00316 µM): 0.02% | viability, T/C (second compound 1 µM, first compound 0.01 µM): 0.01% | viability, T/C (second compound 1 µM, first compound 0.0316 µM): 0.02% | viability, T/C (second compound 1 µM, first compound 0.1 µM): 0.12% | viability, T/C (second compound 3.16 µM, first compound 0.000316 µM): 113% | viability, T/C (second compound 3.16 µM, first compound 0.001 µM): 0.68% | viability, T/C (second compound 3.16 µM, first compound 0.00316 µM): 0.03% | viability, T/C (second compound 3.16 µM, first compound 0.01 µM): 0.02% | viability, T/C (second compound 3.16 µM, first compound 0.0316 µM): 0.03% | viability, T/C (second compound 3.16 µM, first compound 0.1 µM): 0.12% | viability, T/C (second compound 10 µM, first compound 0.000316 µM): 105% | viability, T/C (second compound 10 µM, first compound 0.001 µM): 0.52% | viability, T/C (second compound 10 µM, first compound 0.00316 µM): 0.15% | viability, T/C (second compound 10 µM, first compound 0.01 µM): 0.14% | viability, T/C (second compound 10 µM, first compound 0.0316 µM): 0.13% | viability, T/C (second compound 10 µM, first compound 0.1 µM): 0.19%

NS(=O)(=O)OCC1CC(n2ccc3c(NC4CCc5ccccc54)ncnc32)CC1O (configuration not stated) + NC1CC1c1ccc(-c2cccc(O)c2)cc1
IC50 [1]: 802 nM | IC50 [2]: 848 nM | IC50 [3]: 1140 nM | IC50 [4]: 769 nM | IC50 [5]: 532 nM | viability, T/C [6]: 102% | viability, T/C [7]: 112% | viability, T/C [8]: 115% | viability, T/C [9]: 105% | viability, T/C (second compound 0.1 µM, first compound 0.949 µM): 40.5% | viability, T/C (second compound 0.1 µM, first compound 3 µM): 12.2% | viability, T/C [10]: 100% | viability, T/C [11]: 113% | viability, T/C [12]: 114% | viability, T/C [13]: 105% | viability, T/C (second compound 0.316 µM, first compound 0.949 µM): 44.1% | viability, T/C (second compound 0.316 µM, first compound 3 µM): 13.4% | viability, T/C [14]: 108% | viability, T/C [15]: 115% | viability, T/C [16]: 98.7% | viability, T/C [17]: 102% | viability, T/C (second compound 1 µM, first compound 0.949 µM): 56.8% | viability, T/C (second compound 1 µM, first compound 3 µM): 13.9% | viability, T/C [18]: 99.7% | viability, T/C [19]: 114% | viability, T/C [20]: 102% | viability, T/C [21]: 105% | viability, T/C (second compound 3.16 µM, first compound 0.949 µM): 37.7% | viability, T/C (second compound 3.16 µM, first compound 3 µM): 14.1% | viability, T/C [22]: 95.4% | viability, T/C [23]: 99.5% | viability, T/C [24]: 93.8% | viability, T/C [25]: 69% | viability, T/C (second compound 10 µM, first compound 0.949 µM): 30.5% | viability, T/C (second compound 10 µM, first compound 3 µM): 10.9%

O=C(C=Cc1cccc(S(=O)(=O)Nc2ccccc2)c1)NO
viability, T/C (compound 0.00949 µM): 90.4% and 96.6% | viability, T/C (compound 0.03 µM): 104% and 108% | viability, T/C (compound 0.0949 µM): 82% and 112% | viability, T/C (compound 0.3 µM): 64.3% and 65.9% | viability, T/C (compound 0.949 µM): 12.3% and 17.6% | viability, T/C (compound 3 µM): 0.4% and 0.43% | IC50 (curve of compound): 399 nM and 444 nM
